We go through 19 molecules from patent publication US20200405696A1, “INHIBITORS OF INDOLEAMINE 2,3-DIOXYGENASE AND/OR TRYPTOPHAN 2,3-DIOXYGENASE” (IDORSIA PHARMACEUTICALS LTD, priority 2018, published 2020).

In assay [1] the target is T1, Recombinant full-length human IDO1 (Homo sapiens, UniProt P14902).
T1 construct: Recombinant full-length human IDO1 with a N-terminal hexahistidine tag; hexahistidine (His6) (N); made in house; host or cells: E. coli
Put plainly: IDO1 enzymatic assay (NFK quantified by LCMS). The assay is classed as biochemical. The conditions noted are these: 2 nM enzyme, 5 μM L-tryptophan, pH6.5, 30 minutes pre-incubation at RT; mean values when measured multiple times; read-out: hIDO activity (IC50 in nM). As for the experimental part:
1) Testing Compounds for IDO Inhibitory Activity in an IDO1 Enzymatic Assay:
Recombinant full-length human IDO1 with a N-terminal hexahistidine tag expressed in E. coli and purified to homogeneity is incubated at a final concentration of 2 nM in assay buffer consisting of 37.5 mM phosphate buffer at pH6.5 supplemented with 10 mM ascorbic acid, 0.45 μM methylene blue, 50U/ml catalase, 0.01% BSA, and 0.01% Tween 20 (protocol modified from Seegers et al, JBS 2014). Example compounds are serially diluted in DMSO, further diluted in phosphate buffer, and added to the enzyme at final concentrations ranging from 10 μM to 0.5 nM. The final DMSO concentration is 0.6%. Following a pre-incubation of 30 minutes at RT, the reaction is started by the addition of L-tryptophan at a final concentration of 5 μM in assay buffer. After 30 minutes of incubation at RT, 3 μL of the 20 μl reaction mixture are transferred to a 384 deep well plate containing 25 μL of deionized water. 100 μl of 200 nM L-Tryptophan-(indole-d5) in cold 100% methanol are added followed by a 10 minutes centrifugation at 3220×g at 4° C. An additional 75 μL of deionized water are then added followed by a 10 minutes centrifugation at 3220×g at 4° C. The product of the reaction N′-Formylkynurenine (NFK) is quantified by LCMS and normalized to the L-Tryptophan-(indole-d5) signal. Samples with 0.6% DMSO (0% effect) and a TDO/IDO inhibitor (100% effect) are used as control samples to set the parameters for the non-linear regression necessary for the determination of the half-maximal inhibitory concentration (IC50) for each compound. For each compound concentration the percentage of activity compared to 0% and 100% effect is calculated as average±STDEV (each concentration measured in duplicate). IC50 values and curves are generated with XLfit software (IDBS) using Dose-Response One Site model 203 (four parameter logistic curve model). The calculated IC50 values may fluctuate depending on the daily assay performance. Fluctuations of this kind are known to those skilled in the art. When compounds are measured multiple times, mean values are given.

Assay [2] concerns the target T2, Recombinant human TDO comprising amino acids 19-407 (Homo sapiens, UniProt P48775).
T2 construct: Recombinant human TDO comprising amino acids 19-407 with a N-terminal hexahistidine tag; hexahistidine (His6) (N); made in house; host or cells: E. coli
As to the kind of experiment: TDO2 enzymatic assay (NFK quantified by LCMS). The format is biochemical. The conditions noted are these: 15 nM enzyme, 200 μM L-tryptophan, pH7, 30 minutes pre-incubation at RT; mean values when measured multiple times; read-out: hTDO activity (IC50 in nM). As for the experimental part:
2) Testing Compounds for TDO Inhibitory Activity in a TDO2 Enzymatic Assay:
Recombinant human TDO comprising amino acids 19-407 with a N-terminal hexahistidine tag expressed in E. coli and purified to homogeneity is incubated at a final concentration of 15 nM in assay buffer consisting of 75 mM phosphate buffer at pH7 supplemented with 100 μM ascorbic acid, 50U/ml Catalase, 0.01% BSA, and 0.01% Tween 20 (protocol modified from Seegers et al, JBS 2014). Example compounds are serially diluted in DMSO, further diluted in phosphate buffer, and added to the reaction mixture at final concentrations ranging from 10 μM to 0.5 nM. The final DMSO concentration is 0.6%. Following a pre-incubation of 30 minutes at RT, the reaction is started by the addition of L-tryptophan at a final concentration of 200 μM in assay buffer. After 30 minutes of incubation at RT, 3 μL of the reaction mixture are transferred to a 384 deep well plate containing 25 μL of deionized water. 100 μl of 200 nM L-Tryptophan-(indole-d5) in cold 100% methanol are added followed by a 10 minutes centrifugation at 3220×g at 4° C. An additional 75 μL of deionized water are then added followed by a 10 minutes centrifugation at 3220×g at 4° C. The product of the reaction N′-Formylkynurenine (NFK) is quantified by LCMS and normalized to the L-Tryptophan-(indole-d5) signal. Samples with 0.6% DMSO (0% effect) and a TDO/IDO inhibitor (100% effect) are used as control samples to set the parameters for the non-linear regression necessary for the determination of the half-maximal inhibitory concentration (IC50) for each compound. For each compound concentration the percentage of activity compared to 0% and 100% effect is calculated as average±STDEV (each concentration measured in duplicate). IC50 values and curves are generated with XLfit software (IDBS) using Dose-Response One Site model 203 (four parameter logistic curve model). The calculated IC50 values may fluctuate depending on the daily assay performance. Fluctuations of this kind are known to those skilled in the art. When compounds are measured multiple times, mean values are given.

For orientation: IC50 means the concentration at which inhibition is half-maximal.

T2 sequence (P48775 19-406 limits assumed): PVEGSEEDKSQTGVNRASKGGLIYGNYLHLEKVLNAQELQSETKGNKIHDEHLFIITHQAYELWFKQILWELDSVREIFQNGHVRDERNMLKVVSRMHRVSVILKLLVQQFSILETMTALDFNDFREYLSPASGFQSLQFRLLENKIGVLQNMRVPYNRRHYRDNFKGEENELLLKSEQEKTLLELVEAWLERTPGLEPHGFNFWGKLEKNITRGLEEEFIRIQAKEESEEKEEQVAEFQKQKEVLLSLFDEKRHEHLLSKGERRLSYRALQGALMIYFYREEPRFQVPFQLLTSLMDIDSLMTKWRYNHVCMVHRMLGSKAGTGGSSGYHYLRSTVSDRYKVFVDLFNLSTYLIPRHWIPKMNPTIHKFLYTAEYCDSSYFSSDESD
T1 sequence (P14902 whole entry): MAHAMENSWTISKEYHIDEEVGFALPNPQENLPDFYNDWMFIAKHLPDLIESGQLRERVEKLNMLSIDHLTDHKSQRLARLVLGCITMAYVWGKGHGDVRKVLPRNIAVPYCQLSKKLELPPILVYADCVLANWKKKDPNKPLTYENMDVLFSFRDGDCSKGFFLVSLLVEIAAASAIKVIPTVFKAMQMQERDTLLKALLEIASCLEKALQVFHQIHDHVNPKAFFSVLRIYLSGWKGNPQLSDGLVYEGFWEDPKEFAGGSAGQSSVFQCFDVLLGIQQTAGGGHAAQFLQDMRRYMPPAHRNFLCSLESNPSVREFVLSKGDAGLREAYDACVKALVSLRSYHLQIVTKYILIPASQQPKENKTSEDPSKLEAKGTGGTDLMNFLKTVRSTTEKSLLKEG

As to `CC(C)(O)CCOc1ccc(-n2cc([C@H](O)c3c(C4CC4)sc4cncn34)nn2)cc1` [Example 140a, 4-(4-{4-[(R)-(2-Cyclopropyl-imidazo[5,1-b]thiazol-3-yl)-hydroxy-methyl]-[1,2,3]triazol-1-yl}-phenoxy)-2-methyl-butan-2-ol], the IC50 in assay [1] is 7.31 nM; in assay [2] it was greater than 10200 nM.
As for `COc1cc(-n2cc(C(O)c3c(C4CC4)sc4cncn34)nn2)cc(C#N)c1OC` (racemic) [Example 198, rac-5-{4-[(2-Cyclopropyl-imidazo[5,1-b]thiazol-3-yl)-hydroxy-methyl]-[1,2,3]triazol-1-yl}-2,3-dimethoxy-benzonitrile], the figures for the half-maximal inhibitory concentration (IC50) in assay [1] and in assay [2] were 52.4 nM and greater than 10200 nM, respectively.
The like results for `CN1CCCC(COc2ccc(-n3cc(C(O)c4c(C5CC5)sc5cncn45)nn3)cc2)C1` (centres unmarked) [Example 146, (2-Cyclopropyl-imidazo[5,1-b]thiazol-3-yl)-{1-[4-(1-methyl-piperidin-3-ylmethoxy)-phenyl]-1H-[1,2,3]triazol-4-yl}-methanol] were, in that order, 44.4 nM and greater than 10200 nM.
The like results for `OC(c1cn(-c2cccc3ncccc23)nn1)c1c(C2CC2)sc2cncn12` (racemic) [Example 24, rac-(2-Cyclopropyl-imidazo[5,1-b]thiazol-3-yl)-(1-quinolin-5-yl-1H-[1,2,3]triazol-4-yl)-methanol] were, in that order, 22.8 nM and greater than 10200 nM.
The like results for `Cc1sc2cncn2c1C(O)c1cn(-c2cncc3ccccc23)nn1` (racemic) [Example 61, rac-(1-Isoquinolin-4-yl-1H-[1,2,3]triazol-4-yl)-(2-methyl-imidazo[5,1-b]thiazol-3-yl)-methanol] were, in that order, 493 nM and greater than 10200 nM.
Regarding `Cc1sc2cncn2c1C(O)c1cn(-c2ccc3[nH]ccc3c2)nn1` (racemic) [Example 59, rac-[1-(1H-Indol-5-yl)-1H-[1,2,3]triazol-4-yl]-(2-methyl-imidazo[5,1-b]thiazol-3-yl)-methanol], the IC50 in assay [1] worked out at 50.4 nM; in assay [2], 8400 nM.
The like results for `OC(c1cn(-c2cccc(C(F)(F)F)c2)nn1)c1c(C2CC2)sc2cncn12` (racemic) [Example 5, rac-(2-Cyclopropyl-imidazo[5,1-b]thiazol-3-yl)-[1-(3-trifluoromethyl-phenyl)-1H-[1,2,3]triazol-4-yl]-methanol] were, in that order, 74.2 nM and greater than 10200 nM.
Take `Oc1ccc(-n2cc(C(O)c3c([C@@H]4C[C@@H]4F)sc4cncn34)nn2)cc1Cl` (relative stereo) [Example 325, 2-Chloro-4-(4-{[2-(cis-2-fluoro-cyclopropyl)-imidazo[5,1-b]thiazol-3-yl]-hydroxy-methyl}-[1,2,3]triazol-1-yl)-phenol]: the IC50 in assay [1] was 8.31 nM; in assay [2] it was greater than 10200 nM.
As for `Oc1ccc(-n2cc(C(O)c3c(C4CC4)sc4cncn34)nn2)cc1F` (racemic) [Example 150, rac-4-{4-[(2-Cyclopropyl-imidazo[5,1-b]thiazol-3-yl)-hydroxy-methyl]-[1,2,3]triazol-1-yl}-2-fluoro-phenol], the IC50 worked out at 4.83 nM in assay [1] and 9290 nM in assay [2].
The like results for `O[C@@H](c1cn(-c2ccccc2)nn1)c1c(C2CC2)sc2cncn12` [Example 2a, (R)-(2-Cyclopropyl-imidazo[5,1-b]thiazol-3-yl)-(1-phenyl-1H-[1,2,3]triazol-4-yl)-methanol] were, in that order, 11.7 nM and greater than 10200 nM.
On to `OCCOCCOCCOc1ccc(-n2cc(C(O)c3c(C4CC4)sc4cncn34)nn2)cc1` (racemic) [Example 201, rac-2-{2-[2-(4-{4-[(2-Cyclopropyl-imidazo[5,1-b]thiazol-3-yl)-hydroxy-methyl]-[1,2,3]triazol-1-yl}-phenoxy)-ethoxy]-ethoxy}-ethanol], for which the concentration for half-maximal inhibition (IC50) in assay [1] was 27.8 nM; in assay [2], greater than 10200 nM.
For the molecule `OC(c1cnn(-c2ccccc2)c1)c1c(C2CC2)sc2cncn12` (racemic) [Example 100, rac-(2-Cyclopropyl-imidazo[5,1-b]thiazol-3-yl)-(1-phenyl-1H-pyrazol-4-yl)-methanol], the IC50 in assay [1] came to 41.8 nM; in assay [2], 3350 nM.
For `CCc1sc2cncn2c1C(O)c1cn(Cc2ccccc2)nn1` (racemic) [Example 53, rac-(1-Benzyl-1H-[1,2,3]triazol-4-yl)-(2-ethyl-imidazo[5,1-b]thiazol-3-yl)-methanol], in that order: 73.6 nM and greater than 10200 nM.
For the molecule `Cc1sc2cncn2c1C(O)c1cn(-c2ccc(N3CCOCC3)cc2)nn1` (racemic) [Example 56, rac-(2-Methyl-imidazo[5,1-b]thiazol-3-yl)-[1-(4-morpholin-4-yl-phenyl)-1H-[1,2,3]triazol-4-yl]-methanol], the half-inhibitory concentration (IC50) in assay [1] was 422 nM; in assay [2], greater than 10200 nM.
Regarding `COc1cc(F)c(-n2nnc(C(O)c3c(C4CC4)sc4cncn34)c2C)cc1Cl` (racemic) [Example 333, rac-[1-(5-Chloro-2-fluoro-4-methoxy-phenyl)-5-methyl-1H-[1,2,3]triazol-4-yl]-(2-cyclopropyl-imidazo[5,1-b]thiazol-3-yl)-methanol], the values for the IC50 in assay [1] and in assay [2] were 1.46 nM and greater than 10200 nM, respectively.
As to `OC(c1cn(-c2ccc(CN3CCOCC3)cc2)nn1)c1c(C2CC2)sc2cncn12` (racemic) [Example 37, rac-(2-Cyclopropyl-imidazo[5,1-b]thiazol-3-yl)-[1-(4-morpholin-4-ylmethyl-phenyl)-1H-[1,2,3]triazol-4-yl]-methanol], the half-maximal inhibitory concentration (IC50) in assay [1] was 175 nM; in assay [2], greater than 10200 nM.
The like results for `CCc1sc2cncn2c1C(O)c1cn(-c2ccc(C(=O)N(C)CC)cc2)nn1` (racemic) [Example 124, rac-N-Ethyl-4-{4-[(2-ethyl-imidazo[5,1-b]thiazol-3-yl)-hydroxy-methyl]-[1,2,3]triazol-1-yl}-N-methyl-benzamide] were, in that order, 109 nM and greater than 10200 nM.
For the molecule `OC(c1cnn(-c2ccccc2)n1)c1c(C2CC2)sc2cncn12` (racemic) [Example 158, rac-(2-Cyclopropyl-imidazo[5,1-b]thiazol-3-yl)-(2-phenyl-2H-[1,2,3]triazol-4-yl)-methanol], the IC50 in assay [1] amounted to 466 nM; in assay [2], 5440 nM.
Turning to `OCCCOc1ccc(-n2cc(C(O)c3c(-c4ccccc4)sc4cncn34)nn2)cc1Cl` (racemic) [Example 267, rac-3-(2-Chloro-4-{4-[hydroxy-(2-phenyl-imidazo[5,1-b]thiazol-3-yl)-methyl]-[1,2,3]triazol-1-yl}-phenoxy)-propan-1-ol], the figures for the IC50 in assay [1] and in assay [2] were 122 nM and greater than 10200 nM, respectively.
